Data as given in the supplement of paper PMC10307832.

How the values were obtained:
Assay in all cases: relative viability (nuclei count vs DMSO), 5 days (fraction); higher = more cells survive
[1] = compound: CN(C)CC1=CC(=CC=C1)N=C(C2=CC=CC=C2)C3=C(NC4=C3C=CC(=C4)C(=O)N(C)C)O + O=C(CCCCCCC(=O)Nc1ccccc1)NO [Vorinostat] (partner 1 µM)
How it was run: (§1)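 One day after seeding in 1536-well plates, lung cancer cell lines were dosed by pin tool. Dosing was either single-drug or a fixed anchor-drug dose plus five library-drug doses (not always all listed) in √10 steps. After 5 days, nuclei were stained in one fix-and-stain step and counted on 4× images, and relative viability is the nuclei count of treated wells over that of vehicle wells, given as the median of duplicate plates.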

[2] = compound: CN(C)CC1=CC(=CC=C1)N=C(C2=CC=CC=C2)C3=C(NC4=C3C=CC(=C4)C(=O)N(C)C)O + Cc1cc(Nc2cc(N3CCN(C)CC3)nc(Sc3ccc(NC(=O)C4CC4)cc3)n2)n[nH]1 [Tozasertib] (partner 0.1 µM)
How it was run: as §1

[3] = compound: CN(C)CC1=CC(=CC=C1)N=C(C2=CC=CC=C2)C3=C(NC4=C3C=CC(=C4)C(=O)N(C)C)O + C[C@@H](Oc1cc(-c2cnn(C3CCNCC3)c2)cnc1N)c1c(Cl)ccc(F)c1Cl [Crizotinib] (partner 1 µM)
How it was run: as §1

[4] = compound: CN(C)CC1=CC(=CC=C1)N=C(C2=CC=CC=C2)C3=C(NC4=C3C=CC(=C4)C(=O)N(C)C)O + CC1(C)CCC(c2ccc(Cl)cc2)=C(CN2CCN(c3ccc(C(=O)NS(=O)(=O)c4ccc(N[C@H](CCN5CCOCC5)CSc5ccccc5)c(S(=O)(=O)C(F)(F)F)c4)cc3)CC2)C1 [Navitoclax] (partner 0.5 µM)
How it was run: as §1

| Cell Line | relative viability ([1]; first compound 0.08 µM) | relative viability ([1]; first compound 0.253 µM) | relative viability ([1]; first compound 0.8 µM) | relative viability ([1]; first compound 2.53 µM) | relative viability ([1]; first compound 8 µM) | relative viability ([2]; first compound 0.08 µM) | relative viability ([2]; first compound 0.253 µM) | relative viability ([2]; first compound 0.8 µM) | relative viability ([2]; first compound 2.53 µM) | relative viability ([2]; first compound 8 µM) | relative viability ([3]; first compound 0.08 µM) | relative viability ([3]; first compound 0.253 µM) | relative viability ([3]; first compound 0.8 µM) | relative viability ([3]; first compound 2.53 µM) | relative viability ([3]; first compound 8 µM) | relative viability ([4]; first compound 0.08 µM) | relative viability ([4]; first compound 0.253 µM) | relative viability ([4]; first compound 0.8 µM) | relative viability ([4]; first compound 2.53 µM) | relative viability ([4]; first compound 8 µM) |
| --- | --- | --- | --- | --- | --- | --- | --- | --- | --- | --- | --- | --- | --- | --- | --- | --- | --- | --- | --- | --- |
| HCC-827 | 0.861 | 0.803 | 0.801 | 0.867 | 0.815 | 0.435 | 0.457 | 0.376 | 0.408 | 0.396 | 0.919 | 0.909 | 0.923 | 0.879 | 0.868 | 1.04 | 1.02 | 1.06 | 1 | 0.941 |
| NCI-H2126 | 0.822 | 0.767 | 0.475 | 0.8 | 0.554 | 0.961 | 0.849 | 0.856 | 0.825 | 0.837 | 1.04 | 1.01 | 1.07 | 1.01 | 1.01 | 0.899 | 0.898 | 0.821 | 0.913 | 0.892 |
| RERF-LC-KJ | 0.744 | 0.703 | 0.605 | 0.64 | 0.681 | 0.494 | 0.493 | 0.536 | 0.523 | 0.408 | 0.855 | 0.771 | 0.707 | 0.887 | 0.754 | 1.06 | 0.645 | 0.833 | 1.03 | 0.866 |
| NCI-H2342 | 0.728 | 0.928 | 0.773 | 0.87 | 0.913 | 0.497 | 0.601 | 0.549 | 0.45 | 0.613 | – | – | – | – | – | – | – | – | – | – |
| A-427 | 0.887 | 0.86 | 0.89 | 0.872 | 0.873 | 0.22 | 0.188 | 0.182 | 0.213 | 0.147 | 0.984 | 0.82 | 0.865 | 0.855 | 0.719 | 0.96 | 0.961 | 1.01 | 0.92 | 0.964 |
| HARA | 0.6 | 0.528 | 0.433 | 0.715 | 0.487 | 0.11 | 0.125 | 0.0998 | 0.108 | 0.0768 | 1.02 | 1.02 | 1.05 | 1.02 | 1.11 | 1.14 | 1.14 | 1.18 | 1.15 | 1.13 |
| HCC-78 | 0.455 | 0.668 | 0.379 | 0.464 | 0.427 | 0.507 | 0.426 | 0.403 | 0.383 | 0.364 | 0.327 | 0.282 | 0.297 | 0.34 | 0.372 | 0.894 | 0.734 | 0.807 | 0.75 | 0.769 |
| NCI-H1792 | – | – | – | – | – | – | – | – | – | – | 0.68 | 0.97 | 0.954 | 0.786 | 0.915 | 0.606 | 0.594 | 0.573 | 0.61 | 0.662 |
| NCI-H2347 | 0.604 | 0.736 | 0.617 | 0.539 | 0.565 | 0.615 | 0.522 | 0.522 | 0.56 | 0.603 | 0.734 | 0.727 | 0.73 | 0.703 | 0.58 | 0.898 | 0.878 | 0.67 | 0.775 | 0.871 |
| ABC-1 | 1.34 | 1.21 | 1.1 | 0.895 | 1.14 | 0.198 | 0.173 | 0.15 | 0.179 | 0.171 | 1.17 | 1.12 | 1.01 | 0.764 | 0.891 | – | – | – | – | – |
| Calu-6 | – | – | – | – | – | – | – | – | – | – | 0.758 | 0.749 | 0.762 | 0.814 | 0.859 | 0.815 | 0.831 | 0.963 | 0.888 | 0.928 |
| NCI-H838 | 0.722 | 0.726 | 0.716 | 0.703 | 0.597 | 0.276 | 0.27 | 0.274 | 0.264 | 0.268 | 0.825 | 0.784 | 0.861 | 0.659 | 0.755 | 1.22 | 1.16 | 1.2 | 1.07 | 0.985 |
| NCI-H2023 | 0.594 | 0.685 | 0.765 | 0.368 | 0.589 | 0.333 | 0.342 | 0.291 | 0.307 | 0.343 | 0.797 | 0.698 | 0.67 | 0.563 | 0.498 | 1.02 | 0.97 | 0.952 | 0.872 | 0.984 |
| IA-LM | 0.911 | 0.848 | 0.903 | 0.958 | 1.02 | – | – | – | – | – | 0.937 | 0.797 | 0.906 | 0.926 | 1.04 | – | 0.848 | 0.766 | 0.915 | 1.02 |
| NCI-H358 | 0.73 | 0.629 | 0.585 | 0.582 | 0.482 | 0.105 | 0.0937 | 0.0915 | 0.096 | 0.116 | 0.506 | 0.501 | 0.513 | 0.484 | 0.443 | – | – | – | – | – |
| EBC-1 | – | – | – | – | – | – | – | – | – | – | 0.186 | 0.212 | 0.21 | 0.184 | 0.196 | 0.459 | 0.411 | 0.539 | 0.522 | 0.518 |
| LCLC-103H | 0.815 | 0.801 | 0.782 | 0.793 | 0.57 | 0.455 | 0.524 | 0.551 | 0.516 | 0.509 | 1.14 | 1.06 | 0.914 | 1.02 | 0.979 | – | – | – | – | – |
| NCI-H650 | 0.452 | 0.553 | 0.557 | 0.418 | 0.395 | 0.815 | 0.754 | 0.683 | 0.718 | 0.663 | 0.772 | 0.647 | 0.677 | 0.561 | 0.645 | – | – | – | – | – |
| NCI-H1563 | – | – | – | – | – | – | – | – | – | – | 0.872 | 0.871 | 0.833 | 0.846 | 0.771 | – | – | – | – | – |
| A549 | – | – | – | – | – | – | – | – | – | – | 0.847 | 0.683 | 0.818 | 0.686 | 0.731 | 1.23 | 1.24 | 1.19 | 1.2 | 1.2 |
| NCI-H1395 | 0.705 | 0.845 | 0.886 | 0.589 | 0.701 | 0.85 | 0.831 | 0.789 | 0.746 | 0.771 | – | – | – | – | – | 1.23 | 1.13 | 1.22 | 0.965 | 1.12 |
